Columns and labels:
ROCK1 = ROCK1 (Homo sapiens (Human), UniProt Q13464); experiment: ROCK1 ADP-Glo kinase enzyme inhibition assay; format: biochemical; settings: read-out: ROCK1 IC50
Procedure: (§1) We measured ROCK and PKA kinase enzyme activity inhibition by compounds using commercially available ROCK1 (Promega Corporation, cat #V9581), ROCK2 (Promega, cat #V4045), and PKA kinase (Promega, cat #V4247) ADP-Glo™ assay kits. ADP-Glo™ Kinase Assay is a luminescent ADP detection assay that provides a homogeneous method to measure kinase activity by quantifying the amount of ADP produced during a kinase reaction. The assay is performed in two steps. First, after the kinase reaction, an equal volume of ADP-Glo™ Reagent is added to terminate the kinase reaction and deplete the remaining ATP. Second, the Kinase Detection Reagent is added to simultaneously convert ADP to ATP and allow the newly synthesized ATP to be measured using a luciferase/luciferin reaction. The light generated is measured using a luminometer. A complete protocol is included with the kits and is also available at the Promega website. The assay is briefly described below. • 1. Diluted enzyme, substrate, ATP, and compounds (inhibitors) in Kinase Buffer (40 mM Tris, 7.5, 20 mM MgCl2, 0.1 mg/ml BSA, 50 μM DTT). • 2. Added 1 μl of inhibitor, 2 μl of enzyme and 2 μl of substrate/ATP mix to the wells of 384-well low volume nonbinding assay plate A series of three-fold dilution of inhibitor was prepared and assayed for each inhibitor. • 3. Incubated at room temperature for 60 minutes. • 4. Added 5 μl of ADP-Glo™ Reagent. • 5. Incubated at room temperature for 60 minutes. • 6. Added 10 μl of Kinase Detection Reagent • 7. Incubated at room temperature for 30 minutes.
(§2) Recorded luminescence (Integration time 1 second) using a plate-based luminometer.
Calculated Percent Enzyme Activity: First subtract the signal of the negative control (no enzyme and no inhibitor) from each sample's signal. Then use the mean relative light units (RLU) values for the 0% kinase activity (neither inhibitor nor enzyme) and the 100% kinase activity (no compound) to calculate the other percent enzyme activities remaining in the presence of the different dilutions of inhibitor. […]

PAK1/CDC42 = PAK1/CDC42 (Homo sapiens (Human), UniProt Q13153); experiment: Kinase Selectivity Profiling General Panel (ADP-Glo); format: biochemical; settings: 1 μM compound, read-out: Percent enzyme activity inhibition, PAK1/CDC42
Procedure: (§3) After this incubation, 5 μl of ADP-Glo™ reagent was added to 5 μl reaction and incubated for 40 minutes. Then, 10 μl of Kinase Detection Reagent added to all assay wells in the assay plate and incubated at room temperature for 30 minutes. […]

p38a = p38a (Homo sapiens (Human), UniProt Q16539); experiment: as above; format: biochemical; settings: 1 μM compound, read-out: Percent enzyme activity inhibition, p38a
Procedure: as §3

CAMK4 = CAMK4 (Homo sapiens (Human), UniProt Q16566); experiment: as above; format: biochemical; settings: 1 μM compound, read-out: Percent enzyme activity inhibition, CAMK4
Procedure: as §3

MINK1 = MINK1 (Homo sapiens (Human), UniProt Q8N4C8); experiment: as above; format: biochemical; settings: 1 μM compound, read-out: Percent enzyme activity inhibition, MINK1
Procedure: as §3

Aurora A = Aurora A (Homo sapiens (Human), UniProt O14965); experiment: as above; format: biochemical; settings: 1 μM compound, read-out: Percent enzyme activity inhibition, Aurora A
Procedure: as §3

DAPK1 = DAPK1 (Homo sapiens (Human), UniProt P53355); experiment: as above; format: biochemical; settings: 1 μM compound, read-out: Percent enzyme activity inhibition, DAPK1
Procedure: as §3

LCK = LCK (Homo sapiens (Human), UniProt P06239); experiment: as above; format: biochemical; settings: 1 μM compound, read-out: Percent enzyme activity inhibition, LCK
Procedure: as §3

IKKb = IKKb (Homo sapiens (Human), UniProt O14920); experiment: as above; format: biochemical; settings: 1 μM compound, read-out: Percent enzyme activity inhibition, IKKb
Procedure: as §3

FGFR1 = FGFR1 (Homo sapiens (Human), UniProt P11362); experiment: as above; format: biochemical; settings: 1 μM compound, read-out: Percent enzyme activity inhibition, FGFR1
Procedure: as §3

CK2a1 = CK2a1 (Homo sapiens (Human), UniProt P68400); experiment: as above; format: biochemical; settings: 1 μM compound, read-out: Percent enzyme activity inhibition, CK2a1
Procedure: as §3

PKCa = PKCa (Homo sapiens (Human), UniProt P17252); experiment: as above; format: biochemical; settings: 1 μM compound, read-out: Percent enzyme activity inhibition, PKCa
Procedure: as §3

IRAK4 = IRAK4 (Homo sapiens (Human), UniProt Q9NWZ3); experiment: as above; format: biochemical; settings: 1 μM compound, read-out: Percent enzyme activity inhibition, IRAK4
Procedure: as §3

SYK = SYK (Homo sapiens (Human), UniProt P43405); experiment: as above; format: biochemical; settings: 1 μM compound, read-out: Percent enzyme activity inhibition, SYK
Procedure: as §3

CK1a1 = CK1a1 (Homo sapiens (Human), UniProt P48729); experiment: as above; format: biochemical; settings: 1 μM compound, read-out: Percent enzyme activity inhibition, CK1a1
Procedure: as §3

AKT1 = AKT1 (Homo sapiens (Human), UniProt P31749); experiment: as above; format: biochemical; settings: 1 μM compound, read-out: Percent enzyme activity inhibition, AKT1
Procedure: as §3

AMPKA1/B1/G2 = AMPKA1/B1/G2 (Homo sapiens (Human), UniProt Q13131); experiment: as above; format: biochemical; settings: 1 μM compound, read-out: Percent enzyme activity inhibition, AMPKA1/B1/G2
Procedure: as §3

[1] = Octanol/buffer partition coefficient (log D7.4); format: physicochemical; settings: n-octanol / pH 7.4 phosphate buffer, read-out: log D at pH 7.4
Procedure: In a single incubation, 15 μL of a 10 mM DMSO solution of each test article was added to test tubes, which contained 0.75 mL of n-octanol and 0.75 mL of pH 7.4 phosphate buffer. Testosterone was also introduced to each tube as an internal control, also at a dosing concentration of 100 μM. These samples were gently mixed on a benchtop rotator for 1 hour at room temperature. The tubes were then removed from the rotator and the aqueous and organic phases were allowed to separate for 1 hour. […] As a methods control, the log D of testosterone was also measured at a satisfactory value.

ROCK2 = ROCK2 (Homo sapiens (Human), UniProt O75116); experiment: ROCK2 ADP-Glo kinase enzyme inhibition assay; format: biochemical; settings: Exp #3; read-out: ROCK2 IC50(Exp #3)
Procedure: as §1, §2
Calculated Percent Enzyme Activity: First subtract the signal of the negative control (no enzyme and no inhibitor) from each sample's signal. Then use the mean relative light units (RLU) values for the 0% kinase activity (neither inhibitor nor enzyme) and the 100% kinase activity (no compound) to calculate the other percent enzyme activities remaining in the presence of the different dilutions of inhibitor.
Inhibitor stock solutions of 10 mM are made in DMSO and stored at −20° C. Dilutions were made in assay buffer immediately before use.

Chain of Aurora A (O14965 whole entry): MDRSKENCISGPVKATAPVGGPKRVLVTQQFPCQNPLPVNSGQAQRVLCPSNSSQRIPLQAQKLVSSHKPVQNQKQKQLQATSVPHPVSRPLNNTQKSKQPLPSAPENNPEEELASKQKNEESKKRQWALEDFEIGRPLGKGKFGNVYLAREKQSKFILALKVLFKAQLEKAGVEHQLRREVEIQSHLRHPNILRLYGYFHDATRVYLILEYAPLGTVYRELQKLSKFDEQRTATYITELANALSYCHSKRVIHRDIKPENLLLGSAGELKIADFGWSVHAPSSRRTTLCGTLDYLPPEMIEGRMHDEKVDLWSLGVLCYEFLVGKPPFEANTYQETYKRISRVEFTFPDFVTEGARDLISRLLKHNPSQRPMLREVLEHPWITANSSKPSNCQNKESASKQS
Chain of AMPKA1/B1/G2 (Q13131 whole entry): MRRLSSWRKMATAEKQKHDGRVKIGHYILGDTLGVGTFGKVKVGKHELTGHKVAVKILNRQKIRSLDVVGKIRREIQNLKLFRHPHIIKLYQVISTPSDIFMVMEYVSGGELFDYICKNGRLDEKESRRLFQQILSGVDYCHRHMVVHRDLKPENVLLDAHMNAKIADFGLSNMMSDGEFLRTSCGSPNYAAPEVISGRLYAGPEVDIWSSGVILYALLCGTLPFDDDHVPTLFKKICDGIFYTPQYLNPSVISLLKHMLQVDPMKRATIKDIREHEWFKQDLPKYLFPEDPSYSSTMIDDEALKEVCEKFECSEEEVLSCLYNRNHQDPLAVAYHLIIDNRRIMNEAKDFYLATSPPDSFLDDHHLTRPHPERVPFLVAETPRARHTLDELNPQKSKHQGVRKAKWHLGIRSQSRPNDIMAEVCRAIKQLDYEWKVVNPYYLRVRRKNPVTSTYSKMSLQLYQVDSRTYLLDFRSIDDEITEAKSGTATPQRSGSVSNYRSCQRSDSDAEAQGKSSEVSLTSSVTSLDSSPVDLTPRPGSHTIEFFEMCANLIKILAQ
Chain of AMPKA1/B1/G2 (Q9Y478 whole entry partner): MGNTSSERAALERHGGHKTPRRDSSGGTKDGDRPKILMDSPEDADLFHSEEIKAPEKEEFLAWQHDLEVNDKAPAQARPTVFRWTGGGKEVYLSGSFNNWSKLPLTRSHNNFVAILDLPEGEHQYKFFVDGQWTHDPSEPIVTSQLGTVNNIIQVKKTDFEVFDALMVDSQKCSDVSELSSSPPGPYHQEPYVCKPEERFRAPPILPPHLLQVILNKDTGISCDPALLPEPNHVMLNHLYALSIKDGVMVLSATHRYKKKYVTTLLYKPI
Chain of AMPKA1/B1/G2 (Q9UGJ0 whole entry partner): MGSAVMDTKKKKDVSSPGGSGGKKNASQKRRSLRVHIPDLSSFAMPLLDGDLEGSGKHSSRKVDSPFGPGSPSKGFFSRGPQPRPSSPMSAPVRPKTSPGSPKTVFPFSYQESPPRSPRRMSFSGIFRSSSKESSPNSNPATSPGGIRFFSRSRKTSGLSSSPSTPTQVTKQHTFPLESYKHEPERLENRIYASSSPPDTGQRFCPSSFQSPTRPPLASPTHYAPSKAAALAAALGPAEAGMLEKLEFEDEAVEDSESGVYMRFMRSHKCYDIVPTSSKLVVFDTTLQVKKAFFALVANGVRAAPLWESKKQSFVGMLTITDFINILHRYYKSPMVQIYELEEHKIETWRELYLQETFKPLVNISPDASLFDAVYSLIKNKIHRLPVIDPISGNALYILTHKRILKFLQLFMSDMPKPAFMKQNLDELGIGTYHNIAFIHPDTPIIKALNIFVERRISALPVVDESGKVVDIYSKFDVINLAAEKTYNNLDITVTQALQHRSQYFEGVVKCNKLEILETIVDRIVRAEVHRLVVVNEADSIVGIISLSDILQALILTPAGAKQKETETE
Chain of LCK (P06239 whole entry): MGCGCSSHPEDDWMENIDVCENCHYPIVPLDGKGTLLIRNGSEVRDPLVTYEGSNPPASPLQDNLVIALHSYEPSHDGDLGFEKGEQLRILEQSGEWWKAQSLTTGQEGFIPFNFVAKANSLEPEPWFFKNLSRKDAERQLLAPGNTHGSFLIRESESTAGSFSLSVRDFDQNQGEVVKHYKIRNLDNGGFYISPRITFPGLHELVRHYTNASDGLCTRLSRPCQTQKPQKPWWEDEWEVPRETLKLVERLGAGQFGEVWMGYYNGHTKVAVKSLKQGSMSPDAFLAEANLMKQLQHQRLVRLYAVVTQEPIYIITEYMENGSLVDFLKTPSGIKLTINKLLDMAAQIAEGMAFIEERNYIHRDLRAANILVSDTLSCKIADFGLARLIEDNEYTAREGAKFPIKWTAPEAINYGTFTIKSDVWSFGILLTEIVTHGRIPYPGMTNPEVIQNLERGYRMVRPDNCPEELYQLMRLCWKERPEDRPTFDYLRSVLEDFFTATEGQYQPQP
Chain of MINK1 (Q8N4C8 whole entry): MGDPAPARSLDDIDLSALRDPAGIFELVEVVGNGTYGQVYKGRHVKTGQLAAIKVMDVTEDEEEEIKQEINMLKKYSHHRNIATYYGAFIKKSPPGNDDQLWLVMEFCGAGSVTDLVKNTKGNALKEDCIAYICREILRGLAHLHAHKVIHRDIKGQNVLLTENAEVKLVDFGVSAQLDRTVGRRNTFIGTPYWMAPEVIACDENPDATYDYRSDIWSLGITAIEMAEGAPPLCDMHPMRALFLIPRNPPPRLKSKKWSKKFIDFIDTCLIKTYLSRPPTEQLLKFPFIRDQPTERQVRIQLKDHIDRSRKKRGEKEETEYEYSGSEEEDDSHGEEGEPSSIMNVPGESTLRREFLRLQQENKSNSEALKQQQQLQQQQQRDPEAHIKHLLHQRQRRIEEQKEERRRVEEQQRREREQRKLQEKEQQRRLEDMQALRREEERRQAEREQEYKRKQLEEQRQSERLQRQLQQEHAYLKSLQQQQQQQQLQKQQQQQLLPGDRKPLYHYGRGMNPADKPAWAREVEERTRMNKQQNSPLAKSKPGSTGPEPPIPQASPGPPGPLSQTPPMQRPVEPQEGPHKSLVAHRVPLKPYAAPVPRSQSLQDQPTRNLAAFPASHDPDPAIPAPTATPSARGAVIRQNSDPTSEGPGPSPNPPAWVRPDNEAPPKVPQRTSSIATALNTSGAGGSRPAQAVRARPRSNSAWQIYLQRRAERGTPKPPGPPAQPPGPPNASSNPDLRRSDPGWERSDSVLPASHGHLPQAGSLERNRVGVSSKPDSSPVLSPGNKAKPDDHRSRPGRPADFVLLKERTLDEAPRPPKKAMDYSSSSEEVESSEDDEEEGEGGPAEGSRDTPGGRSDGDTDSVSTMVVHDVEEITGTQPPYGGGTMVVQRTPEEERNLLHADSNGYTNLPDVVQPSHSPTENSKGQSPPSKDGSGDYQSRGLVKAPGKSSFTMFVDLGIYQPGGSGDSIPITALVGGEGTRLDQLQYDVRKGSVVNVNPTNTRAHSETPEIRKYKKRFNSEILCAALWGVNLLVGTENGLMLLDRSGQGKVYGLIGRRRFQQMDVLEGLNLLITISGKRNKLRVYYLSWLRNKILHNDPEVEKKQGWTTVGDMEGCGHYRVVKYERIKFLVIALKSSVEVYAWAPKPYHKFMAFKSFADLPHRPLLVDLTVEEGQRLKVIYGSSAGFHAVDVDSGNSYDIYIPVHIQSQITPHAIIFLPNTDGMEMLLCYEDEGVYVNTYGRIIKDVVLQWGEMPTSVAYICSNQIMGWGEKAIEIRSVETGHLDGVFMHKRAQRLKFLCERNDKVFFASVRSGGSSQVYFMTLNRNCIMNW
Chain of CK1a1 (P48729 whole entry): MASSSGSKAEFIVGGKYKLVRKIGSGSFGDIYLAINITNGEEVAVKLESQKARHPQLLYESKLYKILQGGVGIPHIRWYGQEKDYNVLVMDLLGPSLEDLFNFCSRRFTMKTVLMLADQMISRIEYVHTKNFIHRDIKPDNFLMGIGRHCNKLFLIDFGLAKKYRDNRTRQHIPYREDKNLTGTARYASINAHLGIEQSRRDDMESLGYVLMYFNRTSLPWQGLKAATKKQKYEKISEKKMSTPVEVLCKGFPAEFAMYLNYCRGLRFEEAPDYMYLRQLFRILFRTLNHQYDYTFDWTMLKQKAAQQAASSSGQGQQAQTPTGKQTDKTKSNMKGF
Chain of p38a (Q16539 whole entry): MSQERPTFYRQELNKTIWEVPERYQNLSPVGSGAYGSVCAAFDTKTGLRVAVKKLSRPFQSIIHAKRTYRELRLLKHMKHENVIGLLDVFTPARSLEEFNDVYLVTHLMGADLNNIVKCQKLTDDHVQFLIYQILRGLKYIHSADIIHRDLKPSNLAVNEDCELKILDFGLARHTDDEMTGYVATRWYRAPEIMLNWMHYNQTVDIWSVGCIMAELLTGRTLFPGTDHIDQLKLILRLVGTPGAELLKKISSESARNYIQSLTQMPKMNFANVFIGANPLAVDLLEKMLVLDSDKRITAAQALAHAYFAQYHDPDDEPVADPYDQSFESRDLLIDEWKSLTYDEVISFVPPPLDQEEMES

## Cl.Cl.NCC(C(=O)Nc1ccc2cnccc2c1)c1ccc(B(O)O)cc1 (stereo not shown) [Compound 10•2HCl]
ROCK1
  IC50: 54 nM
PAK1/CDC42
  inhibition at 1 µM: 0%
p38a
  inhibition at 1 µM: 0%
CAMK4
  inhibition at 1 µM: 7%
MINK1
  inhibition at 1 µM: 3%
Aurora A
  inhibition at 1 µM: 21%
DAPK1
  inhibition at 1 µM: 20%
LCK
  inhibition at 1 µM: 0%
IKKb
  inhibition at 1 µM: 0%
FGFR1
  inhibition at 1 µM: 35%
CK2a1
  inhibition at 1 µM: 3%
PKCa
  inhibition at 1 µM: 72%
IRAK4
  inhibition at 1 µM: 0%
SYK
  inhibition at 1 µM: 2%
CK1a1
  inhibition at 1 µM: 0%
AKT1
  inhibition at 1 µM: 55%
AMPKA1/B1/G2
  inhibition at 1 µM: 58%
[1]
  logD: 0.822
ROCK2
  IC50: 28 nM
